{"source": "patent US8063033B2", "about": "“Therapeutic beta-lactams” (Allergan, Inc., priority 2008, dated 2011)", "test_system": "lashes and adjacent hairs of patients", "assay": "Observation of eyelash/hair growth in glaucoma patients treated in one eye", "assay_type": "in vivo, human", "conditions": "glaucoma patient treated in one eye only", "from_the_text": "In the course of treating patients having glaucoma, treatment may only be appropriate in one eye. […] The lash appearance on the lids of the treated eyes would have appeared quite attractive if it represented a bilateral phenomenon. As a result of its asymmetric nature, the long lashes on one side could be construed as disturbing from a cosmetic standpoint. A systemic examination was preformed as a result of the asymmetric phenomenon. It soon became apparent that this altered appearance was not an isolated finding. […] Definite differences could be identified to varying degrees in the lashes and adjacent hairs of all patients who were taking the drug on a unilateral basis for longer than 6 months.\nThe changes in the lashes were apparent on gross inspection in several patients once attention was focused on the issue. In those with light colored hair and lashes, the differences were only seen easily with the aid of the high magnification and lighting capabilities of the slit lamp biomicroscope. In the course of glaucoma follow-up examination, attention is generally immediately focused on the eye itself. As a result of the high power magnification needed only one eye is seen at a time and the eye is seen at a high enough power that the lashes are not in focus. […]", "data": [{"smiles": "CCNC(=O)CCC/C=C\\C[C@@H]1[C@@H](/C=C/[C@@H](O)CCc2ccccc2)[C@H](O)C[C@@H]1O", "note": "[bimatoprost]", "values": [{"measurement": "lash appearance in treated eye versus non-treated eye", "value": "longer, thicker, and fuller"}]}]}
